The assay deals with PAF receptor (Oryctolagus cuniculus, UniProt G1TEI7). Briefly: Inhibition of PAF induced platelet aggregation in rabbit platelet rich plasma (PRP). It counts as cell-based, rabbit (male New Zealand White). Also noted: immediately centrifuged at 800 rpm for 10 minutes at room temperature to recover the platelet rich plasma (PRP); endogenous in cells; host or cells: rabbit platelets in platelet rich plasma (male New Zealand White rabbits). The following applies: rabbit platelet rich plasma. As for the experimental part:
Platelet activating factor (PAF) compounds were evaluated as PAF receptor antagonists in vitro by measuring inhibition of PAF induced platelet aggregation. Platelet aggregation was measured by a modification of the method of A. Wissner, et. al., J. Med. Chem., 27, 1174, 1984.
Approximately 120-240 ml of blood were collected by cardiac puncture from unanesthetized male New Zealand White rabbits (Whaley's Summit View Farms, Belvedere, N.J.) with the use of 3.2% sodium citrate anticoagulant (1 part of citrate/10 parts of blood). All syringes and pipets were plastic. The blood was gently mixed and immediately centrifuged at 800 rpm for 10 minutes at room temperature to recover the platelet rich plasma (PRP). Platelet poor plasma (PPP) was prepared by centrifuging PRP at 2800 rpm for 10 minutes at room temperature.
Dilutions (1:3000) Of PRP in Isoton diluent were made and platelet counts were determined on a Coulter Thrombocounter which was standardized with platelet reference standards (Interscience Platelet Control, Portland, Oreg.). PRP platelet counts were adjusted to 500,000 platelets/μl by the addition of PPP.
L-PAF was obtained from Calbiochem. A stock solution of 1-2 E-3M was prepared in 10% ethanol in water and serial working dilutions were made using phosphate buffered saline (PBS). 1-2 E-3M stock solutions of test compounds were prepared in 100% methanol and serially diluted in PBS. All solutions were made up in plastic tubes, stored on ice and protected from heat and light. Solutions were prepared fresh or frozen at -20° C. and used within 48 hours.
Incubation mixtures consisted of 400 μl PRP, 50 μl of PBS diluent or test compound and 50 μl of PAF agonist. More specifically, 400 μl of PRP was stabilized in a cuvette for 1-2 minutes at 37° C. in the aggregometer to achieve a stable baseline, then 50 μl of PBS or test compound, was added and incubated for 5 minutes before addition of the challenge concentration of PAF ([…], as determined from the dose response curve for PAF for that experiment). Aggregation was monitored for 5 minutes. Samples containing test compound or diluent were run simultaneously for comparison. Test compounds were initially evaluated at a screening concentration of 1E-5M. Those producing ≥ 50% inhibition of the magnitude of aggregation were then reevaluated in a dose response fashion (final concentrations 1E-7M to 5E-5M) and IC50 values were determined. Ki values were also calculated in some cases from [formula] where Ki =inhibitory constant
IC50 =molar concentration of test compound which gives 50% inhibition
[PAF]=molar concentration of PAF used as challenges
EC50 =molar concentration of PAF which gives 50% of maximal aggregation.
The recording equipment consisted of single or dual channel Chronolog aggregometers connected to dual channel 10 MV full scale deflection Omniscribe chart recorders (Houston Instruments). […] The bead suspension was used to set the 0% light transmission mark and clear water was used to set the 100% light transmission mark. These limits defined a full scale deflection. The aggregation traces were analyzed by a digitizing method (C. Kohler and B. Zoltan, J. Pharm. Methods, 12, 113, 1984) with x, y coordinate data stored in a computer file. A suitable program computed parameters of interest such as the magnitude of aggregation.

Where [1] appears, read: IC50 (M) PRP, inhibition of PAF-induced platelet aggregation, PAF challenge 1E-7M.
Where [2] appears, read: IC50 (M) PRP, inhibition of PAF-induced platelet aggregation, PAF challenge 5E-8M.
Setting [3] is: PAF challenge 5E-8M, read-out: IC50 (M) PRP, inhibition of PAF-induced platelet aggregation.

Our source for the IC50 values is patent US5411983A, “Certain hyrdoxy-phosphinyl-oxy-phenylmethyl-imidazolium hydroxide inner salts as PAF antagonists” (American Cyanamid Company, priority 1993, dated 1995).

Structures can show the parent of a compound that is named as a salt. Where two headings read alike, the source gives them in different places.

PAF receptor, sequence (G1TEI7 1-342): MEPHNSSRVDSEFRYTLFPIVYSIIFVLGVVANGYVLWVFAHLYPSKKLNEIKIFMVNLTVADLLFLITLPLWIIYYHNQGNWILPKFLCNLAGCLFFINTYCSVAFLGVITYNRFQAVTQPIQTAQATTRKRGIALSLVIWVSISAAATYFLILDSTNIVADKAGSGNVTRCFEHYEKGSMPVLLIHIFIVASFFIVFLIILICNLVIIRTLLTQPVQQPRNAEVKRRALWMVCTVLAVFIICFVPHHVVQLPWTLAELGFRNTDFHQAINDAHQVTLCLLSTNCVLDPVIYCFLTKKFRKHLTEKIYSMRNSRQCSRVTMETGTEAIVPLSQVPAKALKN

Regarding `CCCCCCCCCCCCCCc1cccc(OCC(COP(=O)([O-])Oc2cccc(C[n+]3ccccc3)c2)OC)c1` (stereo not shown) [1-[[3-[[Hydroxy[2-methoxy-3-(3-tetradecylphenoxy)propoxy]phosphinyl]oxy]phenyl]methyl]pyridinium, hydroxide, inner salt], the IC50 was 5.3e-05 M (IC50 (M) PRP, inhibition of PAF-induced platelet aggregation, PAF challenge 1E-6M); 5.4e-06 M under setting [1]; 4.1e-06 M under setting [2].
Compound `CCCCCCCCCCCCOc1cccc(OCC(COP(=O)([O-])Oc2cccc(C[n+]3csc(CCO)c3C)c2)OC)c1C` (stereo not shown) [3-[[3-[[[3-[3-(Dodecyloxy)-2-methyl-phenoxy]-2-methoxypropoxy]hydroxyphosphinyl]oxy]phenyl]methyl)-5-(2-hydroxyetbyl)-4-methylthiazolium, hydroxide, inner salt] had an IC50 under setting [2] of 1.7e-05 M.
Take `CCCCCCCCCCCCCCCCOCC(COC(=O)c1cccc(C[N+](C)(C)C)c1)OC` (stereo not shown) [3-[[3-(Hexadecyloxy)-2-methoxypropoxy]-carbonyl]- --N, --N, --N-trimethylbenzenemethanaminium, bromide]: the IC50 runs as follows: (PAF challenge 1E-7M, read-out: IC50 (M) PRP, inhibition of PAF-induced platelet aggregation) 3e-05 M; under setting [3], 3.1e-05 M.
In the case of `CCCCCCCCCCCCOc1cccc(OCC(COP(=O)([O-])Oc2cccc(C[n+]3ccccc3)c2)OC)c1C` (stereo not shown) [1-[[3-[[[3-[3-(Dodecyloxy)-2-methylphenoxy]-2-methoxypropoxy]hydroxyphosphinyl]oxy]phenyl]methyl]pyridinium, hydroxide, inner salt], the IC50 under setting [2] is 1.7e-07 M.
Take `CCCCCCCCCCCCCCCCCCNC(=O)OCC(COP(=O)([O-])Oc1cccc(C[n+]2ccccc2)c1)OC` (stereo not shown) [3-[[3-[(1-Hydroxy-4-methoxy-7-oxo-2,6-dioxa-8-aza-1-phosphahexacosyl)oxy]phenyl]methyl]pyridinium, hydroxide, inner salt, P-oxide]: the IC50 under setting [2] amounted to 4.4e-06 M.
Still for that read-out and setting: next, `COC(CCCOCc1ccccc1)COP(=O)([O-])Oc1cccc(C[n+]2ccsc2)c1` (stereo not shown) [3-[[3-[[Hydroxy[[5-(phenylmethoxy)-2-methoxypentyl]oxy]phosphinyl]oxy]-phenyl]methyl]thiazolium, hydroxide, inner salt]: 0.0001 M; `CCCCCCCCCCOCCOCCOCC(COP(=O)([O-])Oc1cccc(C[n+]2ccsc2)c1)OC` (stereo not drawn) [3-[[3-[(1-Hydroxy-4-methoxy-2,6,9,12-tetraoxa-l-phosphadocos-l-yl)oxy]-phenyl]methyl]thiazolium, hydroxide, inner salt, P-oxide]: 8.3e-06 M.
For the compound `CCCCCCCCCCCCOc1cccc(OCC(COP(=O)([O-])Oc2cccc(C[n+]3cccc4ccccc43)c2)OC)c1C` (stereo not shown) [1-[[3-[[[3-[3-(Dodecyloxy)-2-methylphenoxy]-2-methoxypropoxy]hydroxyphosphinyl]oxy]phenyl]methyl]quinolinium, hydroxide, inner salt], the IC50 is, setting by setting: under setting [1], 1.2e-05 M; under setting [2], 7.3e-05 M.
As for `CCCCCCCCCCCCCCCCCCOP(=O)([O-])Oc1cccc(C[n+]2ccsc2)c1` [3-[[3-[[Hydroxy(octadecyloxy)phosphinyl]oxy]phenyl]methyl]thiazolium, hydrozide, inner salt], the IC50 under setting [2] was 2.2e-05 M.
Still for that read-out and setting: as for `CCCCCCCCCCCCCCCCCCOP(=O)([O-])Oc1cccc(C[n+]2ccccc2)c1` [1-[[3-[[Hydroxy(octadecyloxy)phosphinyl]oxy]phenyl]methyl]pyridinium, hydroxide, inner salt], the figure is 4.2e-05 M.
Turning to `CCCCCCCCCCCCCCCCOCC(COCc1cccc(Cn2ccnc2)c1)OC` (stereo not shown) [1-[[3-[[3-(Hexdecyloxy)-2-methoxypropoxy]methyl]phenyl]methyl]-1H-imidazole], the IC50 under setting [3] is 5.8e-05 M.
`CCCCCCCCCCCCCCCCOCC(COP(=O)(O)Oc1cccc(C[P+](c2ccccc2)(c2ccccc2)c2ccccc2)c1)OC` (stereo not shown) [[[3-[[[3-(Hexadecyloxy)-2-methoxypropoxy]hydroxyphosphinyl]oxy]phenyl]-methyl]triphenylphosphonium, bromide]: under setting [2], it took 1.4e-05 M to reach half-maximal inhibition (IC50).
